Data as given in patent US6946558B2 (CJ Corp., priority 2001, dated 2005).

Columns and labels:
[1] = target: T1, cyclooxygenase-2 (Mus musculus, UniProt Q05769); experiment: Cyclooxygenase-2 inhibition in Raw 264.7 cells (interferon γ/LPS induced, PGE2 EIA); type: cell-based; settings: for Inhibitory effects of cyclooxygenase (COX): COX-2 (Raw 264.7): Raw 264.7 cells; for selectivity of cyclooxygenase-2 compared with standard substance: COX-2 versus COX-1, compared with SC-58635
T1 construct: endogenous in cells; host or cells: Raw 264.7 (Korean cell line bank), induced with interferon γ and LPS
T1 sequence (Q05769 18-604): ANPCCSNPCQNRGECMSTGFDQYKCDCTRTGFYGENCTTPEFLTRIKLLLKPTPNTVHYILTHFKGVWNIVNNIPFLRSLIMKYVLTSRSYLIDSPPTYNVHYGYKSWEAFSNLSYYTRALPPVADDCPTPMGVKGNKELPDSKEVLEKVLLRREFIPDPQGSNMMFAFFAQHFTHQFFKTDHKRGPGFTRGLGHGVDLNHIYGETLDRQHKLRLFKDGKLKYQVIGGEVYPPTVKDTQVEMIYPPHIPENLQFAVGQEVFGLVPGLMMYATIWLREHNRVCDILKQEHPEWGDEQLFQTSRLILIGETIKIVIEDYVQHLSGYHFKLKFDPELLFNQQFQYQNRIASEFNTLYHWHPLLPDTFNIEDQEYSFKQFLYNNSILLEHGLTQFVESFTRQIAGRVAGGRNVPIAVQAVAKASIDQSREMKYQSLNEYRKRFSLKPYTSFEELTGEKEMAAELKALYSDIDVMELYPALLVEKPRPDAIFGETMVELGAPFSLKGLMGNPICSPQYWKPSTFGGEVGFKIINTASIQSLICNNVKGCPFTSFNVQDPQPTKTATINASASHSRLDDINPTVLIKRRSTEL
Experimental: (§1) In order to investigate pharmacologically the selective inhibition activity against cyclooxygenase-2 enzyme, the inhibitive effects against cyclooxygenase-1 and cyclooxygenase-2 were measured by two methods as follows.
And then, each samples were replaced with new media and cultured for 30 minutes. In addition, the samples were treated with 100 units/ml of interferon γ and 100 ng/ml of lipopolysaccharide (LPS), and cultured for 18 hours. Then, the media was transferred to other tubes and the PGE 2 was quantitated by using EIA kit from Cayman Chemicals.

[2] = target: T2, cyclooxygenase-1 (Homo sapiens, UniProt P23219); experiment: Cyclooxygenase-1 inhibition in U-937 cells (PGE2 quantitation after arachidonic acid); type: cell-based; settings: for Inhibitory effects of cyclooxygenase (COX): COX-1 (U-937): U-937 cells; for inhibition effect against cyclooxygenase-1 compared with standard substance SC-58635: in words, compared with SC-58635
T2 construct: endogenous in cells; host or cells: U-937 (Korean cell line bank)
T2 sequence (P23219 24-599): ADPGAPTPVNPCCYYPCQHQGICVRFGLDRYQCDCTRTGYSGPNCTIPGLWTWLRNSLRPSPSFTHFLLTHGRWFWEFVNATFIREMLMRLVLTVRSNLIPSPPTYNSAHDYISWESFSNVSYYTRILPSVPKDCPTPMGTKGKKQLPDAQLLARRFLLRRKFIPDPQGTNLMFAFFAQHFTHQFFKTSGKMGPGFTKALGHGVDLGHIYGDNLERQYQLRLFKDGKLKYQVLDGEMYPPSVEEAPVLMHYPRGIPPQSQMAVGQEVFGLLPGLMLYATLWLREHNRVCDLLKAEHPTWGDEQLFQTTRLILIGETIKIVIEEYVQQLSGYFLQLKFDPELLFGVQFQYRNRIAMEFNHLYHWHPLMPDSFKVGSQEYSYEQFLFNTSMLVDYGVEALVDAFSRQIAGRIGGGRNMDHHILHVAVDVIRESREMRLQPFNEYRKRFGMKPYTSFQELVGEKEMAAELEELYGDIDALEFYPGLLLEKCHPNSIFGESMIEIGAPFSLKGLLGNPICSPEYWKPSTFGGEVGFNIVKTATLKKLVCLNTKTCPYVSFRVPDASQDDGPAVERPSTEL
Experimental: as §1
Then, the pellet was diluted with 1×HBSS (Hank's balanced salt solutin) at the concentration of 1×10^6 cells/ml, and 1 ml of them was transferred into each of 12-well plates, and then dissolved with DMSO. 5 μl of the diluted sample solution and 5 μl of DMSO vehicle were added therein and mixed, and the mixture was cultured at 37° C. in CO2 incubator for 15 minutes. Arachidonic acid as a substrate was dissolved in ethanol to prepare a stock solution with a concentration of 10 mM, followed by diluting with 1×HBSS to prepare the solution of 1 mM. 10 μl of 1 mM Arachidonic acid solution was added to each of the treated wells and the mixture was cultured at 37° C. in CO2 incubator for 30 minutes. The cell solution of each well was collected in the centrifuge tube and centrifuged at 4° C., for 5 minutes at 10,000 rpm. As PGE2 existed in the supernatant separated from collected cell, the concentration of PGE2 was quantitated by using monoclonal kit from Cayman Chemicals, and the concentration of samples and vehicle were compared to estimate the inhibition ratio (%) of each compound against cyclooxygenase-1. Ultimately, the inhibition effect against the cyclooxygenase-1 enzyme was obtained from the result.

| SMILES | Inhibitory effects of cyclooxygenase (COX): COX-2 (Raw 264.7) ([1]; 30 nM) [% inhibition] | Inhibitory effects of cyclooxygenase (COX): COX-2 (Raw 264.7) ([1]; 100 nM) [% inhibition] | Inhibitory effects of cyclooxygenase (COX): COX-2 (Raw 264.7) ([1]; 300 nM) [% inhibition] | selectivity of cyclooxygenase-2 compared with standard substance ([1]; in words) | Inhibitory effects of cyclooxygenase (COX): COX-1 (U-937) ([2]; 1 μM) [% inhibition] | Inhibitory effects of cyclooxygenase (COX): COX-1 (U-937) ([2]; 3 μM) [% inhibition] | Inhibitory effects of cyclooxygenase (COX): COX-1 (U-937) ([2]; 10 μM) [% inhibition] | inhibition effect against cyclooxygenase-1 compared with standard substance SC-58635 [2] | inhibition effect against cyclooxygenase-2 compared with standard substance SC-58635 ([1]; in words, low concentration, same condition as SC-58635) |
| --- | --- | --- | --- | --- | --- | --- | --- | --- | --- |
| CC(C)Oc1cccnc1-c1ccc(S(C)(=O)=O)nc1 [Example 1, 3-isopropyloxy-6′-methylsulfonyl-2,3′-bipyridinyl] | 10.2 | 14.2 | 15.2 | hardly different | 0.2 | 7.5 | 11.0 | much lower level than a comparative substance |  |
| CS(=O)(=O)c1ccc(-c2ncccc2OC2CCCC2)cn1 [Example 2, 3-cyclopentyloxy-6′-methylsulfonyl-2,3′-bipyridinyl] | 40.3 | 53.2 | 63.5 | better than any other standard substances | 12.7 | 14.3 | 21.0 | much lower level than standard substance | more excellent in low concentration than standard substance |
| CS(=O)(=O)c1ccc(-c2ncccc2OC2CCCCC2)cn1 [Example 3, 3-cyclohexyloxy-6′-methylsulfonyl-2,3′-bipyridinyl] | 23.5 | 30.2 | 42.2 |  | 11.2 | 12.5 | 14.0 |  |  |
| CC(C)=CCOc1cccnc1-c1ccc(S(C)(=O)=O)nc1 [Example 4, 6′-methylsulfonyl-3-(3-methyl-2-butenyloxy)-2,3′-bipyridinyl] | 15.8 | 28.5 | 40.8 |  | 12.2 | 15.6 | 17.0 |  |  |
| C[C@H](CO)COc1cccnc1-c1ccc(S(C)(=O)=O)nc1 [Example 5, (R)-3-(6′-methylsulfonyl-2,3′-bipyridine-3-yloxy)-2-methyl-1-propanol] | 10.3 | 11.01 | 20.1 | hardly different | 13.5 | 16.2 | 18.9 | much lower level than a comparative substance |  |
| C[C@@H](CO)COc1cccnc1-c1ccc(S(C)(=O)=O)nc1 [Example 6, (S)-3-(6′-methylsulfonyl-2,3′-bipyridine-3-yloxy)-2-methyl-1-propanol] | 9.3 | 12.0 | 21.0 | hardly different | 14.3 | 17.2 | 24.5 | much lower level than a comparative substance |  |
